Data: US20250145570A1, “DHODH INHIBITOR POLYMORPH” (Aslan Pharmaceuticals Pte Ltd, priority 2022, published 2025)
Entries after “also recorded” stand apart in the source; their conditions may differ. Read-outs that look alike come from different tables or passages of the source.

What was measured:
Assay type in all cases: physicochemical
[1] = Characterisation of new polymorphs: XRPD before and after drying/grinding
Method: 500 μL 1,1,1.3.3.3-Hexafluoro-2-Propanol was added to 20 mg of amorphous farudodstat DSP polymorph in a 1.5 mL of HPLC vial equipped with a magnetic stirring bar, resulting in formation of a mobile slurry. The slurry was isothermally stirred for 2 weeks at 40° C. An additional 20 mg of material was added to the slurry as it became a clear solution after one week. Solids were isolated by centrifugation using a […] Nylon filter, and were analysed without any further drying by XRPD, TGA and 1H NMR (proton nuclear magnetic resonance). Finally, the samples were dried at 40° C. for 4 hrs and then reanalysed by XRPD.
350 μL of N-Methylpyrrolidone (NMP) was added to 20 mg of amorphous farudodstat DSP polymorph in a 1.5 mL HPLC vial equipped with a magnetic stirring bar to prepare a mobile slurry. The resulting slurry was thermally cycled for 3 days between 5-40° C. (Ramp rate: 0.1° C./min with isothermal holds of 1 hour at 40° C. and 5° C.). The saturated solution was then evaporated at 100° C., before the solids were analysed by XRPD.

[2] = Polymorph screening experiments (XRPD of returned solids); settings: conclusion of screening experiments
Method: A solvent solubility screen was carried out on the farudodstat DSP polymorph (also referred to as CS-276-22 in the following examples) to determine its solubility in various solvents, and to gain an initial assessment of the polymorphic landscape. To ˜20 mg samples of predominantly amorphous farudodstat, aliquots (2×50 μL and then 100 μL) of the chosen solvents were added until dissolution was observed, or 2 mL had been added. The samples were manually agitated and heated to ˜40° C. in a block attached to a water bath in between each aliquot Clear solutions were uncapped and allowed to evaporate at room temperature. Any solids obtained from slurries and from evaporation were analysed by X-ray powder diffraction (XRPD).
16×20 mg of the farudodstat DSP polymorph sample was weighed into 2 mL bead mill vials and was milled for 1.5 hrs for amorphization. Next, 5 μL of appropriate solvents (see Table 6) were added to each sample. The samples were then bead milled using the following procedure: • 1. 2 stainless steel beads were added to each vial. • 2. 4500 rpm • 3. 10×90 s cycles • 4. 10 s hold between each cycle • 5. Repeated 4× to give 1 hr milling time
16×20 mg of farudodstat sample was first weighed into 2 mL bead mill vials and was milled to prepare amorphous material. To all the […] bead milled samples, appropriate solvents (see Table 6) were added in 100 μL aliquots until a mobile slurry was obtained without any dissolution observed. Between additions, the samples were stirred at 40° C. Samples were then stirred, and temperature cycled between 5-40° C. (0.1° C./min heating/cooling rate, 1 hour hold at each temperature) for ˜72 hours.
After 48 hours, samples were checked. If necessary, additional solids added. Non-mobile solid in solution samples were agitated using a spatula until a mobile slurry was obtained. Slurries were isolated by centrifugation ([…] nylon filters) and the solids analysed by XRPD. Post XRPD analysis, the XRPD plate was dried at 40° C. under vacuum for 48 hours and the solids reanalysed by XRPD to give an indication of form stability.
The saturate isolated from the previous thermal cycling experiment was left to evaporate at room temperature. Any solids returned from evaporation were analysed by XRPD.
16×20 mg of farudodstat sample was weighed into 2 mL bead mill vials and then milled to prepare amorphous material. To the bead milled sample, appropriate solvent was added in 100 μL aliquots until a mobile slurry was obtained without any dissolution observed. Between additions, the samples were stirred at 50° C. and 100° C. depending upon the boiling point of the solvent to dissolve the API in the solvent system. Samples were checked and slurries were isolated by centrifugation ([…] Nylon filters) and the saturates were put in an HPLC vials. Next, the vials were uncapped and were left to evaporate at 50° C. using a water bath. Finally, after the complete evaporation of solvent, the remaining solid were analysed by XRPD to check for appearance of any new patterns.
20 mg×5 of farudodstat sample was weighed into 2 ml bead mill vials and milled to prepare amorphous material. To the bead milled sample, appropriate solvent was added in 100 μL aliquots until a mobile slurry was obtained without any dissolution observed. Between additions, the samples were stirred at 100° C. to dissolve the API in the solvent system. Samples were checked and slurries were isolated by centrifugation (0.22 μm Nylon filters) and the saturates were put in an HPLC vials. The vials were then uncapped and were left to evaporate at 100° C. using a sand bath. After the complete evaporation of solvent, the remaining solid were analysed by XRPD to check for appearance of any new patterns.
20 mg×16 farudodstat sample was weighed into 2 ml bead mill vials and milled to prepare amorphous material. The appropriate solvent was added in 100 μL aliquots until a mobile slurry was obtained without any dissolution observed. […]

[3] = Approximate solubility by manual dilution combined with visual observation; settings: thermodynamic from solid
Method: The approximate solubility was tested at room temperature by manual dilution combined with visual observation. The solubility of material in different single and mixed solvents was determined at the concentration once no particles of farudodstat could be visually observed in solvents.

[4] = Form stability of DSP polymorph after processing/recrystallisation (XRPD, DSC, TGA)
Method: The farudodstat DSP polymorph was characterized using X-ray powder diffraction (XRPD), differential scanning calorimetry (DSC), thermogravimetric analysis, (TGA) and polarized light microscopy (PLM). Then it was subjected to various recrystallisation and analysis to confirm it was a DSP polymorph.
The suspensions of the DSP polymorph were prepared in different single solvents and mixed solvents (see Table 4 below). After this the samples were kept shaking for 72 hrs at 25° C. and 50° C. before they were centrifuged at 14,000 rpm for 10 mins until solid material was separated from the supernatant. The centrifuged samples were investigated by XRPD. The samples were dried under vacuum conditions at 40° overnight and investigated by XRPD, DSC and TGA if new XRPD patterns were found.
The farudodstat DSP polymorph was subject to processing or treated to test the physical stability of the form.
50 mg of the DSP polymorph was dissolved in the selected solvents (see Table 4) according to the solubility results to form saturated solutions. Next, the anti-solvent was slowly added into the solution under stirring until the precipitation formed. If there was no solid precipitation at room temperature, the sample was transferred into the freezer and stored at −20° C. After this, the slurries were stirred for 24 hours before they were centrifuged at 14,000 rpm for 10 mins, until solid material was separated from the supernatant. The centrifuged samples were investigated by XRPD. The samples were next dried under vacuum conditions at 40° C. overnight. If crystalline XRPD patterns were found, the samples were further investigated by XRPD, DSC and TGA.
Due to the high solubility of the DSP polymorph in some solvents (see Table 4), these solvents were chosen for the evaporation test. The solutions were prepared according to the solubility of the compound and were kept open at room temperature to let the solvents evaporate to form crystals. After evaporation was complete, the dried solids were collected and investigated by XRPD. Further tests were performed on DSC and TGA if new XRPD patterns were found.
10-30 mg of the original form of ASLAN003 was loaded into glass vials and placed in a thermomixer at either 60° C. or 50° C. After this, the selected solvents (see Table 4) were slowly added to the samples until the compound was completely dissolved. Next, the samples were transferred into the Crystal 16 crystallizer and the cooled to 0° C. at a rate of 0.5° C./min, before they were held at 0° C. for 24 hrs. If there was no solid precipitation at 0° C., the sample was transferred into a freezer at −20° C. […]
Two samples from Example 4: • 1. […] THF with water by antisolvent were further characterized after drying under vacuum conditions at 40° C. overnight and evaluated.

Row | SMILES | Stability of polymorphic form [1] | Form after drying ([1]; drying at 40° C. for 4 hours) | XRPD after gentle grinding ([1]; gentle grinding) | Overall stability of polymorph [2] | solubility ([3]; 11 organic solvents/mixed solvents, organic solvent or mixture, read-out: relatively poor solubility) [µg/mL] | solubility ([3]; organic solvent or mixture, Acetone:Dichloromethane (1:1), room temperature, read-out: Solubility) [µg/mL] | solubility ([3]; organic solvent or mixture, Acetone:Dichloromethane (3:1), room temperature, read-out: Solubility) [µg/mL] | solubility ([3]; organic solvent or mixture, CHCl3, room temperature, read-out: Solubility) [µg/mL] | solubility ([3]; organic solvent or mixture, Cyclohexane, room temperature, read-out: Solubility) [µg/mL] | solubility ([3]; organic solvent or mixture, Dichloromethane, room temperature, read-out: Solubility) [µg/mL] | solubility ([3]; organic solvent or mixture, Heptane, room temperature, read-out: Solubility) [µg/mL] | solubility ([3]; organic solvent or mixture, THF-Heptane (1:1), room temperature, read-out: Solubility) [µg/mL] | solubility ([3]; organic solvent or mixture, Toluene, room temperature, read-out: Solubility) [µg/mL] | solubility ([3]; organic solvent or mixture, some solvents, room temperature, read-out: High solubility) [µg/mL] | solubility ([3]; Water, room temperature, read-out: Solubility) [µg/mL] | Weight loss on heating ([4]; after heating to 200° C.) | Form found in screening experiments ([4]; all experiments of Table 4 (anti-solvent, grinding, crystallization, drying, milling, heating/cooling, slurry, evaporation)) | Stability on recrystallisation ([4]; recrystallized from a number of solvents) | Polymorph stability ([4]; samples from THF evaporation and THF-water antisolvent, dried under vacuum at 40° C. overnight)
1 | COc1cccc(-c2cc(F)c(Nc3ncccc3C(=O)O)c(F)c2)c1 [NMP polymorph] | unstable/metastable | conversion of Pattern 3 back to Pattern 1 | did not change the pattern observed |  |  |  |  |  |  |  |  |  |  |  |  |  |  |  | 
2 | COc1cccc(-c2cc(F)c(Nc3ncccc3C(=O)O)c(F)c2)c1 [farudodstat DSP polymorph, 2-(3,5-difluoro-3′methoxybiphenyl-4-ylamino)nicotinic acid] |  |  |  | highly stable; also recorded: high stability | < 10000 | < 1580 | < 1900 | < 570 | < 490 | < 600 | < 810 | < 1510 | < 530 | > 100000 | < 530 | minimum weight loss | predominant form | stable and reproducible | stable
